Laboratory results published in paper PMC8664850, “Design, synthesis, and biological evaluation of novel urolithins derivatives as potential phosphodiesterase II inhibitors” (Scientific Reports, 2021).

Assays:
[1] = target: T1, Phosphodiesterase II (PDE2) (Homo sapiens, UniProt O00408); experiment: PDE2 enzyme inhibitory activity, AlphaScreen cAMP kit method; type: biochemical; details: in vitro, enzyme level, seven concentrations, mean of at least three experiments
T1 construct: the recombinant plasmid pET15b-PDE2A (580–941) was donated; made in house; host or cells: E. coli BL21-Codon Plus (DE3)
T1 sequence (O00408 580-941): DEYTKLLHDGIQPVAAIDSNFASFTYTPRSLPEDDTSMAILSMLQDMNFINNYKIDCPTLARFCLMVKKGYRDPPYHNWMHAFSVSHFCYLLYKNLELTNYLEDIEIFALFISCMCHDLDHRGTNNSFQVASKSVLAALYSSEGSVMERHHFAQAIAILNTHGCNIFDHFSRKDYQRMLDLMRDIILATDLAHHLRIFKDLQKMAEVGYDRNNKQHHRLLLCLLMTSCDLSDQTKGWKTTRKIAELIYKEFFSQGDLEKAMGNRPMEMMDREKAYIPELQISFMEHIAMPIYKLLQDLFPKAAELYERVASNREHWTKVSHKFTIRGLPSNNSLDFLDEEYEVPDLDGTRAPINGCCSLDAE
Excerpt: The AlphaScreen kit method was used to detect PDE2 inhibitory activity of the 27 synthesized compounds (2a–n and 4a–m) in vitro, each diluted at seven concentrations, and each carried out with three sets of parallel experiments. The IC50 values were obtained by fitting calculations using software Graphpad Prism 7.

IC50 [1]	melting point	Structure (SMILES)
> 100 µM	112.3 to 112.6 °C	CCCOc1ccc2c(c1)oc(=O)c1cc(C)ccc12 [Compound 2b, 8-methyl-3-propoxy-6H-benzo[c]chromen-6-one]
> 100 µM	170.1 to 172 °C	Cc1ccc2c(c1)c(=O)oc1cc(OCCC3OCCCO3)ccc12 [Compound 2m, 3-(2-(1,3-dioxan-2-yl)ethoxy)-8-methyl-6H-benzo[c]chromen-6-one]
93.2 µM	–	O=c1oc2cc(O)ccc2c2c1CCCC2 [Compound 3, 3-Hydroxy-7,8,9,10-tetrahydro-6H-benzo[c]chromen-6-one]
> 100 µM	104.2 to 105.6 °C	CCOc1ccc2c3c(c(=O)oc2c1)CCCC3 [Compound 4a, 3-ethoxy-7,8,9,10-tetrahydro-6H-benzo[c]chromen-6-one]
> 100 µM	107.1 to 108.3 °C	CCCOc1ccc2c3c(c(=O)oc2c1)CCCC3 [Compound 4b, 3-propoxy-7,8,9,10-tetrahydro-6H-benzo[c]chromen-6-one]
34.3 µM	85.4 to 87.5 °C	CC(C)Oc1ccc2c3c(c(=O)oc2c1)CCCC3 [Compound 4c, 3-isopropoxy-7,8,9,10-tetrahydro-6H-benzo[c]chromen-6-one]
> 100 µM	110.6 to 112.4 °C	CCCCCOc1ccc2c3c(c(=O)oc2c1)CCCC3 [Compound 4e, 3-(pentyloxy)-7,8,9,10-tetrahydro-6H-benzo[c]chromen-6-one]
> 100 µM	112.2 to 114 °C	O=c1oc2cc(OCC3CCCO3)ccc2c2c1CCCC2 (centres unmarked) [Compound 4f, 3-((tetrahydrofuran-2-yl)methoxy)-7,8,9,10-tetrahydro-6H-benzo[c]chromen-6-one]
> 100 µM	128.1 to 129.5 °C	O=c1oc2cc(OCC3OCCO3)ccc2c2c1CCCC2 [Compound 4g, 3-((1,3-dioxolan-2-yl)methoxy)-7,8,9,10-tetrahydro-6H-benzo[c]chromen-6-one]
> 100 µM	111 to 112.3 °C	O=c1oc2cc(OCCC3OCCO3)ccc2c2c1CCCC2 [Compound 4h, 3-(2-(1,3-dioxolan-2-yl)ethoxy)-7,8,9,10-tetrahydro-6H-benzo[c]chromen-6-one]
> 100 µM	107.2 to 109.3 °C	O=c1oc2cc(OCC3CCCCC3)ccc2c2c1CCCC2 [Compound 4i, 3-(cyclohexylmethoxy)-7,8,9,10-tetrahydro-6H-benzo[c]chromen-6-one]
> 100 µM	124.6 to 125.2 °C	O=c1oc2cc(OCC3CCOCC3)ccc2c2c1CCCC2 [Compound 4j, 3-((tetrahydro-2H-pyran-4-yl)methoxy)-7,8,9,10-tetrahydro-6H-benzo[c]chromen-6-one]
> 100 µM	107.5 to 108.4 °C	O=c1oc2cc(OCCC3OCCCO3)ccc2c2c1CCCC2 [Compound 4k, 3-(2-(1,3-dioxan-2-yl)ethoxy)-7,8,9,10-tetrahydro-6H-benzo[c]chromen-6-one]
> 100 µM	124.2 to 125.6 °C	O=c1oc2cc(OCc3ccccc3F)ccc2c2c1CCCC2 [Compound 4l, 3-((2-fluorobenzyl)oxy)-7,8,9,10-tetrahydro-6H-benzo[c]chromen-6-one]
> 100 µM	98.5 to 99.2 °C	COc1cc(COc2ccc3c4c(c(=O)oc3c2)CCCC4)cc(OC)c1 [Compound 4m, 3-((3,5-dimethoxybenzyl)oxy)-7,8,9,10-tetrahydro-6H-benzo[c]chromen-6-one]

Continued, compound first:

Structure (SMILES)	IC50 [1]	melting point
Cc1ccc2c(c1)c(=O)oc1cc(O)ccc12 [Compound 1, 3-hydroxy-8-methyl-6H-benzo [C]chromen-6-one]	> 100 µM	–
CCOc1ccc2c(c1)oc(=O)c1cc(C)ccc12 [Compound 2a, 3-ethoxy-8-methyl-6H-benzo[c]chromen-6-one]	> 100 µM	–
Cc1ccc2c(c1)c(=O)oc1cc(OC(C)C)ccc12 [Compound 2c, 3-isopropoxy-8-methyl-6H-benzo[c]chromen-6-one]	> 100 µM	102.3 to 103 °C
CCC(C)Oc1ccc2c(c1)oc(=O)c1cc(C)ccc12 (centres unmarked) [Compound 2d, 3-(sec-butoxy)-8-methyl-6H-benzo[c]chromen-6-one]	> 100 µM	62.6 to 63.4 °C
CCCCCOc1ccc2c(c1)oc(=O)c1cc(C)ccc12 [Compound 2e, 8-methyl-3-(pentyloxy)-6H-benzo[c]chromen-6-one]	34 µM	–
Cc1ccc2c(c1)c(=O)oc1cc(OCC3CCCC3)ccc12 [Compound 2f, 3-(cyclopentylmethoxy)-8-methyl-6H-benzo[c]chromen-6-one]	> 100 µM	122.8 to 123.6 °C
Cc1ccc2c(c1)c(=O)oc1cc(OCC3CCCO3)ccc12 (centres unmarked) [Compound 2g, 8-methyl-3-((tetrahydrofuran-2-yl)methoxy)-6H-benzo[c]chromen-6-one]	> 100 µM	122.8 to 123.6 °C
Cc1ccc2c(c1)c(=O)oc1cc(OCC3OCCO3)ccc12 [Compound 2h, 3-((1,3-dioxolan-2-yl)methoxy)-8-methyl-6H-benzo[c]chromen-6-one]	> 100 µM	148.2 to 148.8 °C
Cc1ccc2c(c1)c(=O)oc1cc(OCCC3OCCO3)ccc12 [Compound 2i, 3-(2-(1,3-dioxolan-2-yl)ethoxy)-8-methyl-6H-benzo[c]chromen-6-one]	> 100 µM	–
Cc1ccc2c(c1)c(=O)oc1cc(OCC3CCCCC3)ccc12 [Compound 2j, 3-(cyclohexylmethoxy)-8-methyl-6H-benzo[c]chromen-6-one]	65.7 µM	113.3 to 115.1 °C
Cc1ccc2c(c1)c(=O)oc1cc(OCC3CCOCC3)ccc12 [Compound 2k, 8-methyl-3-((tetrahydro-2H-pyran-4-yl)methoxy)-6H-benzo[c]chromen-6-one]	> 100 µM	148 to 148.6 °C
Cc1ccc2c(c1)c(=O)oc1cc(OCc3ccccc3F)ccc12 [Compound 2l, 3-((2-fluorobenzyl)oxy)-8-methyl-6H-benzo[c]chromen-6-one]	> 100 µM	154.9 to 155.5 °C
COc1cc(COc2ccc3c(c2)oc(=O)c2cc(C)ccc23)cc(OC)c1 [Compound 2n, 3-((3,5-dimethoxybenzyl)oxy)-8-methyl-6H-benzo[c]chromen-6-one]	> 100 µM	158.7 to 160.2 °C
CCC(C)Oc1ccc2c3c(c(=O)oc2c1)CCCC3 (centres unmarked) [Compound 4d, 3-(sec-butoxy)-7,8,9,10-tetrahydro-6H-benzo[c]chromen-6-one]	> 100 µM	74 to 74.2 °C
